How the values were obtained:
Type in all cases: cell-based
Enterobacter cloacae = assay: MIC against Gram-negative bacteria: Enterobacter cloacae; conditions: for MIC E. cloacae / MIC (μg/mL) E. cloacae: 5×10^5 CFU/mL
Method in brief: (§1)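 Purified recombinant human EGF domain proteins are tested by broth dilution in LB against a 5×10^5 CFU/mL inoculum, with two-fold serial dilutions run in triplicate. Plates are incubated at 37° C with shaking, and the MIC is read as the lowest protein concentration without growth.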

Citrobacter diversus = assay: MIC against Gram-negative bacteria: Citrobacter diversus; conditions: for MIC C. diversus / MIC (μg/mL) C. diversus: 5×10^5 CFU/mL
Method in brief: as §1

Serratia marcescens = assay: MIC against Gram-negative bacteria: Serratia marcescens; conditions: for MIC S. marcescens / MIC (μg/mL) S. marcescens: 5×10^5 CFU/mL
Method in brief: as §1

Aeromonas hydrophila = assay: MIC against Gram-negative bacteria: Aeromonas hydrophila; conditions: for MIC A. hydrophila / MIC (μg/mL) A. hydrophila: 5×10^5 CFU/mL
Method in brief: as §1

Moraxella catarrhalis = assay: MIC against Gram-negative bacteria: Moraxella catarrhalis; conditions: for MIC M. catarrhalis / MIC (μg/mL) M. catarrhalis: 5×10^5 CFU/mL
Method in brief: as §1

Klebsiella pneumonia = assay: MIC against Gram-negative bacteria: Klebsiella pneumonia; conditions: for MIC K. pneumonia / MIC (μg/mL) K. pneumonia: 5×10^5 CFU/mL
Method in brief: as §1

Pseudomonas aeruginosa = assay: MIC against Gram-negative bacteria: Pseudomonas aeruginosa; conditions: for MIC P. aeruginosa / MIC (μg/mL) P. aeruginosa: 5×10^5 CFU/mL
Method in brief: as §1

Proteus mirabilis = assay: MIC against Gram-negative bacteria: Proteus mirabilis; conditions: for MIC P. mirabilis / MIC (μg/mL) P. mirabilis: 5×10^5 CFU/mL
Method in brief: as §1

E. coli DH5α = assay: Antibacterial activity: MIC and growth curve against E. coli DH5α in 96-well plate; conditions: minimal inhibitory concentration against E. coli DH5α; 96-well plate, 5×10^5 CFU/mL, 37° C., judged after 8 h
Method in brief: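 Log-phase DH5α (OD600 about 0.5, 37° C, 185 rpm in LB) was pelleted, resuspended in fresh LB and seeded at 5×10^5 CFU/mL with recombinant protein at 50, 25 and 12.5 μg/mL (two-fold series), in triplicate. Plates were shaken at 175 rpm, 37° C, and OD600 was read every 30 min. MIC was the lowest concentration with no growth.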

E. coli BL21 = assay: MIC against Gram-negative bacteria: E. coli BL21; conditions: for MIC E. coli BL21 / MIC (μg/mL) E. coli BL21: 5×10^5 CFU/mL
Method in brief: as §1

Proteus vulgaris = assay: MIC against Gram-negative bacteria: Proteus vulgaris; conditions: for MIC P. vulgaris / MIC (μg/mL) P. vulgaris: 5×10^5 CFU/mL
Method in brief: as §1

[1] = E. cloacae, 10 h cultivation at 37° C.
[2] = C. diversus, 10 h cultivation at 37° C.
[3] = S. marcescens, 10 h cultivation at 37° C.
[4] = A. hydrophila, 10 h cultivation at 37° C.
[5] = M. catarrhalis, 10 h cultivation at 37° C.
[6] = K. pneumonia, 10 h cultivation at 37° C.
[7] = P. aeruginosa, 10 h cultivation at 37° C.
[8] = P. mirabilis, 10 h cultivation at 37° C.
[9] = E. coli BL21, 10 h cultivation at 37° C.
[10] = P. vulgaris, 10 h cultivation at 37° C.

Substance | MIC E. cloacae (Enterobacter cloacae; 96-well plate, 37° C., 10 h) | MIC C. diversus (Citrobacter diversus; 96-well plate, 37° C., 10 h) | MIC S. marcescens (Serratia marcescens; 96-well plate, 37° C., 10 h) | MIC A. hydrophila (Aeromonas hydrophila; 96-well plate, 37° C., 10 h) | MIC M. catarrhalis (Moraxella catarrhalis; 96-well plate, 37° C., 10 h) | MIC K. pneumonia (Klebsiella pneumonia; 96-well plate, 37° C., 10 h) | MIC P. aeruginosa (Pseudomonas aeruginosa; 96-well plate, 37° C., 10 h) | MIC P. mirabilis (Proteus mirabilis; 96-well plate, 37° C., 10 h) | MIC (E. coli DH5α) | MIC E. coli BL21 (E. coli BL21; 96-well plate, 37° C., 10 h) | MIC P. vulgaris (Proteus vulgaris; 96-well plate, 37° C., 10 h) | other results
PRT690 (EAEECGILDGCTNGRCVRVPEGFTCRCFDGYRLDMTRMACV; listed as Homo sapiens) | 12.5 µg/mL | 25 µg/mL | 12.5 µg/mL | 25 µg/mL | 50 µg/mL | 25 µg/mL | 25 µg/mL | 12.5 µg/mL | 25 µg/mL | 50 µg/mL | 50 µg/mL | –
PRT19 (CSCDPQGAVRDDCEQMTGLCSCKPGVAGPKCGQCPDGRALGPAGCEA; listed as Homo sapiens) | – | – | – | – | – | – | – | – | 25 µg/mL | – | – | MIC (μg/mL) E. cloacae (Enterobacter cloacae; Enterobacter cloacae, 96-well plate, 37° C., 10 h): 50 µg/mL; MIC (μg/mL) C. diversus (Citrobacter diversus; Citrobacter diversus, 96-well plate, 37° C., 10 h): 25 µg/mL; MIC (μg/mL) S. marcescens (Serratia marcescens; Serratia marcescens, 96-well plate, 37° C., 10 h): 50 µg/mL; MIC (μg/mL) A. hydrophila (Aeromonas hydrophila; Aeromonas hydrophila, 96-well plate, 37° C., 10 h): 12.5 µg/mL; MIC (μg/mL) M. catarrhalis (Moraxella catarrhalis; Moraxella catarrhalis, 96-well plate, 37° C., 10 h): 50 µg/mL; MIC (μg/mL) K. pneumonia (Klebsiella pneumonia; Klebsiella pneumonia, 96-well plate, 37° C., 10 h): 25 µg/mL; MIC (μg/mL) P. aeruginosa (Pseudomonas aeruginosa; Pseudomonas aeruginosa, 96-well plate, 37° C., 10 h): 12.5 µg/mL; MIC (μg/mL) P. mirabilis (Proteus mirabilis; Proteus mirabilis, 96-well plate, 37° C., 10 h): 12.5 µg/mL; MIC (μg/mL) E. coli BL21 (E. coli BL21; E. coli BL21, 96-well plate, 37° C., 10 h): 12.5 µg/mL; MIC (μg/mL) P. vulgaris (Proteus vulgaris; Proteus vulgaris, 96-well plate, 37° C., 10 h): 25 µg/mL
PRT226 (DIDECESGAHQCSEAQTCVNFHGGYRCVDTNRCVEPYIQVSENRCL; listed as Homo sapiens) | – | – | – | – | – | – | – | – | 50 µg/mL | – | – | MIC (μg/mL) E. cloacae (Enterobacter cloacae; [1]): 50 µg/mL; MIC (μg/mL) C. diversus (Citrobacter diversus; [2]): 50 µg/mL; MIC (μg/mL) S. marcescens (Serratia marcescens; [3]): 12.5 µg/mL; MIC (μg/mL) A. hydrophila (Aeromonas hydrophila; [4]): 12.5 µg/mL; MIC (μg/mL) M. catarrhalis (Moraxella catarrhalis; [5]): 12.5 µg/mL; MIC (μg/mL) K. pneumonia (Klebsiella pneumonia; [6]): 25 µg/mL; MIC (μg/mL) P. aeruginosa (Pseudomonas aeruginosa; [7]): 12.5 µg/mL; MIC (μg/mL) P. mirabilis (Proteus mirabilis; [8]): 12.5 µg/mL; MIC (μg/mL) E. coli BL21 (E. coli BL21; [9]): 25 µg/mL; MIC (μg/mL) P. vulgaris (Proteus vulgaris; [10]): 12.5 µg/mL
PRT615 (CDCHALGSTNGQCDIRTGQCECQPGITGQHCERCEVNHFGFGPEGCKP; listed as Homo sapiens) | 12.5 µg/mL | 50 µg/mL | 50 µg/mL | 25 µg/mL | 25 µg/mL | 25 µg/mL | 12.5 µg/mL | 12.5 µg/mL | 12.5 µg/mL | 25 µg/mL | 25 µg/mL | –
PRT726 (LPPPCRCMHGGNCYFDETDLPKCKCPSGYTGKYCE; listed as Homo sapiens) | 12.5 µg/mL | 50 µg/mL | 25 µg/mL | 25 µg/mL | 25 µg/mL | 25 µg/mL | 25 µg/mL | 12.5 µg/mL | 12.5 µg/mL | 50 µg/mL | 50 µg/mL | –
PRT905 (DVNECDSQPCLHGGTCQDGCGSYRCTCPQGYTGPNCQ; listed as Homo sapiens) | – | – | – | – | – | – | – | – | 25 µg/mL | – | – | MIC (Enterobacter cloacae; [1]): 50 µg/mL; MIC (Citrobacter diversus; [2]): 50 µg/mL; MIC (Serratia marcescens; [3]): 12.5 µg/mL; MIC (Aeromonas hydrophila; [4]): 12.5 µg/mL; MIC (Moraxella catarrhalis; [5]): 25 µg/mL; MIC (Klebsiella pneumonia; [6]): 25 µg/mL; MIC (Pseudomonas aeruginosa; [7]): 12.5 µg/mL; MIC (Proteus mirabilis; [8]): 12.5 µg/mL; MIC (E. coli BL21; [9]): 50 µg/mL; MIC (Proteus vulgaris; [10]): 50 µg/mL

Reference: US9833497B2, “Human originated EGF domain proteins and use of the same” (CHENGDU SOURCEBIO LIMITED-LIABILITY COMPANY, priority 2013, dated 2017)
